Results taken from ChEMBL document CHEMBL4828744, “Design, synthesis and biological evaluation of pyridinylmethylenepiperidine derivatives as potent 5-HT1F receptor agonists for migraine therapy” (Eur J Med Chem, 2021).
The source made the active and inactive calls. The calls are words filed in the database; no cut-off is given here.

Assays:
[1] = target: T1, 5-hydroxytryptamine receptor 2C (Homo sapiens, UniProt P28335); assay: Binding affinity to human 5HT2C receptor
T1 sequence (P28335 whole entry): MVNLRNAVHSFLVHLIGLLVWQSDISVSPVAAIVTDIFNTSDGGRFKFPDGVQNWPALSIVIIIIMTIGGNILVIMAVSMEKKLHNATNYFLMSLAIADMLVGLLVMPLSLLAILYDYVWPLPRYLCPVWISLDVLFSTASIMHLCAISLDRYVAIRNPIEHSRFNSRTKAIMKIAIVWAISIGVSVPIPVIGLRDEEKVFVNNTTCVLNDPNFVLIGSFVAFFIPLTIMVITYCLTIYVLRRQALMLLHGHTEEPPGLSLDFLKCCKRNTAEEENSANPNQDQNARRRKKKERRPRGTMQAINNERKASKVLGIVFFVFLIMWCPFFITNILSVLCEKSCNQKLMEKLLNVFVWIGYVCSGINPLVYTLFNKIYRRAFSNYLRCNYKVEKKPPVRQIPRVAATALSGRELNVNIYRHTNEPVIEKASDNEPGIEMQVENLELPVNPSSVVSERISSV

Rattus norvegicus [2] = assay: Antimigraine activity against electrical stimulation of trigeminal ganglion migraine Wistar rat model assessed as reduction in dural plasma protein extravasation at 0.01 to 0.1 ug/kg, po measured after 45 mins by confocal fluorescence microscopic analysis; format: functional, organism-based; settings: dose 0.01-0.1 µg/kg
[3] = Half life in Sprague-Dawley rat at 5 mg/kg, ig measured for 24 hrs by LC-MS/MS analysis; format: ADME, organism-based; settings: in vivo, po
[4] = Toxicity in ig dosed monkey administered for 28 days; format: organism-based, Macaca mulatta; settings: rhesus monkey, in vivo, po; time 28 day
[5] = AUC (0 to 24hrs) in Sprague-Dawley rat at 150 mg/kg, ig by LC-MS/MS analysis; format: ADME, organism-based; design: time < 24 hr, route intragastric, dose 150 mg/kg; settings: in vivo, po
[6] = Cmax in monkey at 5 mg/kg, ig administered for 28 days by LC-MS/MS analysis; format: ADME, organism-based, Macaca mulatta; design: route intragastric, time 28 day, dose 5 mg/kg; settings: rhesus monkey, in vivo, po
[7] = Cmax in Sprague-Dawley rat at 150 mg/kg, ig administered for 28 days by LC-MS/MS analysis; format: ADME, organism-based; design: route intragastric, dose 150 mg/kg, time 28 day; settings: in vivo, po
Rattus norvegicus [8] = assay: Antimigraine activity against electrical stimulation of trigeminal ganglion migraine Wistar rat model assessed as reduction in c-Fos-positive cells at 10 ug/kg, po measured after 60 mins by confocal fluorescence microscopic analysis; format: functional, organism-based; settings: dose 10.0 µg/kg
[9] = target: T2, 5-hydroxytryptamine receptor 3A (Homo sapiens, UniProt P46098); assay: Binding affinity to human 5HT3 receptor
T2 sequence (P46098 whole entry): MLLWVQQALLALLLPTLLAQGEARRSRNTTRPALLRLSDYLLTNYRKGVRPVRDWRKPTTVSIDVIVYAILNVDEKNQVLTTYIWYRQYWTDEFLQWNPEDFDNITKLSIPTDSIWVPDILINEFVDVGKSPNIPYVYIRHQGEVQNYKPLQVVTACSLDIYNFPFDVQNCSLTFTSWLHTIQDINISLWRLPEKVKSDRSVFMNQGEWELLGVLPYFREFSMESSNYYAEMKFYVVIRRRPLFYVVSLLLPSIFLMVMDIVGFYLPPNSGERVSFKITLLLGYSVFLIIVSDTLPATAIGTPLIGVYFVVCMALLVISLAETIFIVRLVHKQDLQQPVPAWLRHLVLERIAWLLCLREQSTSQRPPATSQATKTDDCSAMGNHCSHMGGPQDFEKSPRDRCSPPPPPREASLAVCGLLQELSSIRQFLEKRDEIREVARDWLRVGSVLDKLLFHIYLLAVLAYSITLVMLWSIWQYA

[10] = target: T3, 5-hydroxytryptamine receptor 1F (Homo sapiens, UniProt P30939); assay: Binding affinity to human 5HT1F receptor
T3 sequence (P30939 whole entry): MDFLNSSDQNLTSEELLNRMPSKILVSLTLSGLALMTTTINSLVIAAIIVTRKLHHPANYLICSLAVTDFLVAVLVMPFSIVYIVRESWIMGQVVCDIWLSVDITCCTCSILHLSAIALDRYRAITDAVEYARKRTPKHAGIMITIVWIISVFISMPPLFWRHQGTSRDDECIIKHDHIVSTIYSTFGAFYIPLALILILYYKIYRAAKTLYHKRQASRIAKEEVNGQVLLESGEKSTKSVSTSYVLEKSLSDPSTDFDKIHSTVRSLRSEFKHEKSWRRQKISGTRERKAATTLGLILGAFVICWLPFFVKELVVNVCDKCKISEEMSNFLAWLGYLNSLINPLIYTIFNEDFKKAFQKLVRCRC

[11] = Bioavailability in Sprague-Dawley rat at 5 mg/kg, ig measured for 24 hrs by LC-MS/MS analysis; format: ADME, organism-based; settings: in vivo, po

CN1CCC(=C(F)c2cccc(NC(=O)c3c(F)cc(F)cc3F)n2)CC1
IC50 [1]: 7.06 µM | Activity (Rattus norvegicus [2]): Active | half-life [3]: 2.95 h | NOAEL at 672 h [4]: 5 mg/kg/day | AUC(0-t) at 24 h [5]: 10200 ng·h/mL | Cmax [6]: 3410 ng/mL | Cmax [7]: 841 ng/mL | Activity (Rattus norvegicus [8]): Active | IC50 [9]: > 10 µM | IC50 [10]: 0.00032 µM | bioavailability [11]: 64%
